pIC50: −log10 of the molar value. Where two headings read alike, the source gives them in different places.
Assays:
[1] = in vivo
Excerpt: The objective of this assay was to determine the epidermal, dermal and plasma pharmacokinetics of a test compound following a 24 hr exposure to intact mouse or mini-pig skin.
Twenty-four hours prior to dosing the hair was shaved from the back of 25 g male Balb/c mice exposing an area at of least 6 cm^2 (about 10% of body surface) and, in a separate experiment, of 10 kg Gottingen mini-pigs exposing an area of at least 450 cm^2 (about 10% of body surface). […] The skin was covered with an adhesive cover to prevent loss of compound to the cage or bedding.
Following 24 h exposure, the backs were gently washed with soap and water to remove non-absorbed drug and patted dry. Immediately following this washing, blood was drawn by cardiac puncture from the mice and via venipuncture from the mini-pigs. The outer skin (stratum corneum) was then removed by adhesive tape stripping. Upon exposure of the epidermis a 0.5 cm punch biopsy was taken. The epidermis and dermis were quickly separated, weighed and snap frozen.

[2] = test system: oxazolone-induced colitis; test: Mouse model of oxazolone-induced colitis; format: in vivo, BALB/C mice
Procedure: Oxazolone-induced colitis is an experimental model that has a histological resemblance to human ulcerative colitis (Heller et al. […], 2002, 17, 629-638). Adult BALB/C mice from Harlan were used in the assay. On day 1, animals were lightly anesthetized with isoflurane and the hairs between the shoulder were carefully removed before oxazolone (4%, 150 μL, 4:1 acetone: olive oil formulation) or vehicle solution was slowly applied for skin sensitization. Seven days after skin sensitization, the mice were fasted overnight, anesthetized with isoflurane inhalation, and a 1 mL syringe equipped with a 3.5-F catheter, filled with oxazolone solution, was inserted carefully about 4 cm into the colon of the mouse. Following insertion, 50 μL of the oxazolone solution (1%, 1:1 ethanol:water formulation) was injected very slowly (over 30 sec using an injection pump) into the colon. The catheter was removed and the mice were held vertically (head down) for 2 min to ensure that the entire oxazolone solution remained inside the colon. Drug treatment (PO, BID or TID) or vehicle was initiated a day prior to the oxazolone intrarectal (IR) challenge. Two-day post oxazolone intrarectal challenge, the Disease Activity Index (DAI) was assessed by treatment-blinded experimenters for each mouse according to the criteria score: stool consistency score (0, normal; 2, loose; 4, diarrhea), gross bleeding score (0, absence; 2, blood tinged; 4, presence), and weight loss score (0, none; 1, 1%-5%; 2, 5%-10%; 3, 10%-20%; 4, more than 20%); DAI=average of (stool consistency score+gross bleeding score+weight loss score).
Selected compounds of the invention were tested in the assay. Efficacy in the model is evidenced by a decrease in DAI score as compared with the score from vehicle treated animals.

[3] = test system: IL-4 stimulated STAT6 phosphorylation in CD3+ T cells in human PBMCs; test: Cellular JAK potency assay: inhibition of IL-4 stimulated pSTAT6 in CD3+ T cells; format: cell-based; settings: T-cell
Procedure: The potency of test compounds for inhibition of interleukin-4 (IL-4) stimulated STAT6 phosphorylation was measured in CD3-positive (CD3+) T cells in human peripheral blood mononuclear cells (PBMCs) isolated from human whole blood (Stanford Blood Center) using flow cytometry. Because IL-4 signals through JAK, this assay provides a measure of JAK cellular potency.
CD3+ T cells were identified using a […] (PE) conjugated anti-CD3 antibody (Clone UCHT1, BD Biosciences), while an Alexa Fluor 647 conjugated anti-pSTAT6 antibody (pY641, Clone 18/P, BD Biosciences) was used to detect STAT6 phosphorylation.
Human peripheral blood mononuclear cells (PBMC) were isolated from human whole blood of healthy donors using a ficoll gradient. […] After incubation, cells were washed twice in FACS buffer before being analyzed using a LSRII flow cytometer (BD Biosciences).
To determine the inhibitory potency of test compounds in response to IL-4, the median fluorescent intensity (MFI) of pSTAT6 was measured in CD3+ T cells. IC50 values were determined from analysis of the inhibition curves of MFI vs compound concentration. Data are expressed as pIC50 (negative decadic logarithm IC50) values (mean±standard deviation).

[4] = test system: mouse splenic NK, B and T cells; settings: in vivo, po
Procedure: Depletion of mouse splenic cells is an experimental model of immunosuppression (Kudlacz et al., Am. J. of Transplantation, 2004, 4, 51-57). The compound of Example 2 was assessed in the mouse splenic cell model following the same treatment paradigm as that used in the oxazolone-induced colitis model (Assay 8).
The compound (1, 10 and 100 mg/kg, BID) and tofacitinib (30 and 60 mg/kg, BID) as a positive control were dosed orally for three days to naïve mice. Spleens were harvested 1 h post last dose and crushed immediately for cell subtype staining. Prior to fixation, fluorophore-labelled antibodies for CD19 (FITC; B cells), CD3e (PE; pan T cells) and DX5 (APC; NK cells) were incubated with splenocyte samples from each animal to allow for simultaneous, multiple subtype % analysis on the flow cytometer. The number of total spleen cells for each animal was measured by Scepter™ 2.0 Handheld Automated Cell Counter.
The absolute number of lymphocyte subtype population (e.g., splenic B, T and NK cells) was calculated from the percentage of each subtype times total spleen cells for each animal. A one way ANOVA, with Dunnett's post hoc test, was used to compare the splenic lymphocytes number of the vehicle and test compound groups. The a level was set at p<0.05. Data were presented as the mean±SEM for each group.

## COc1cc(Nc2cc(CO)[nH]n2)nc(N(C)[C@@H]2C[C@H]3CCC[C@@H](C2)N3S(=O)(=O)N2CC(C#N)C2)n1 [Example 2, 1-(((1R,3s,5S)-3-((4-((5-(Hydroxymethyl)-1H-pyrazol-3-yl)amino)-6-methoxypyrimidin-2-yl)(methyl)amino)-9-azabicyclo[3.3.1]nonan-9-yl)sulfonyl)azetidine-3-carbonitrile]
[1]; Gottingen, minipig
  duration of sustained dermal levels: at least 7 days
[1]; male, Balb/c, mouse
  duration of sustained dermal levels: at least 2 days
[2]; mice
  activity in the oxazolone-induced colitis model: demonstrated activity
[2]; mouse, PO BID
  minimal dose that caused a significant anti-colitic effect: 1 mg/kg
[2]; mouse, PO, 1, 3, and/or 10 mg/kg BID
  decrease in DAI score as compared with vehicle treated animals: statistically significant decrease
[3]; IL-4 stimulated pSTAT6, CD3+ T cells, read-out: pIC50 value (converted)
  IC50: ~50.1 nM
[3]; cellular assay, Assay 4, read-out: IC50 for inhibition of IL-4
  pIC50: ≥ 7.30
[4]
  treatment effect on B and T cell populations: No treatment effect

Source: US10028960B2, “Pyrimidine compounds as JAK kinase inhibitors” (THERAVANCE BIOPHARMA R&D IP, LLC, priority 2016, dated 2018)
